# Assay results reported in publication PMC7151106 (Pharmaceutics, 2020).
# Like-named read-outs stand apart in the source and are kept apart here.
# Experiments:
# OAT3 = test system: T1, OAT3; test: Substrate specificity / uptake in HEK293-OAT3 cells; format: in vitro ADME; settings: for Substrate for OAT3: HEK293-OAT3 vs mock, ± 20 μM probenecid
# T1 construct: host or cells: HEK293
# Method: HEK293-mock cells and HEK293 cells overexpressing OAT1 and OAT3 transporters (HEK293-OAT1 and -OAT3, respectively) were seeded in poly-D-lysine-coated 24-well plates at a density of 4 × 10^5 cells/well and cultured for 24 h in DMEM supplemented with 10% FBS and 5 mM non-essential amino acids at 37 °C in 8% CO2 condition.
# For each experiment, the growth medium was discarded after 24 h, and the attached cells were washed with pre-warmed HBSS and incubated with pre-warmed HBSS for 20 min at 37 °C. To confirm the functionality of OAT1 and OAT3, we measured the uptake of 0.1 µM [^3H]PAH and 0.1 µM [^3H]ES, representative substrates for OAT1 and OAT3, respectively, into in the HEK293-mock cells and HEK293-OAT1 and -OAT3 cells, respectively, for 5 min in the presence and absence of 20 µM probenecid, a typical inhibitor for both OAT1 and OAT3 [8, 9]. The cells were then washed three times with 500 μL of ice-cold HBSS immediately after placing the plates on ice. Subsequently, cells were lysed with 10% sodium dodecyl sulfate and mixed with Optiphase cocktail solution overnight. The radioactivity of the cell lysate was measured using a liquid scintillation counter (Microbeta 2; Perkin Elmer Inc., Boston, MA, USA).
# For the concentration dependency in the uptake of DWP16001, the uptake of DWP16001 in a concentration range of 0.5–50 μM dissolved in HBSS was measured for 5 min at 37 °C in the mock cells and HEK293-OAT1 and -OAT3 cells, respectively. After 5 min, the cells were washed three times with 500 μL of ice-cold HBSS immediately after placing the plates on ice.
# In the concentration-dependent uptake studies, the transporter-mediated uptake of DWP16001 was calculated by the subtraction of the transport rates of DWP16001 into the mock cells from those of the HEK293-OAT1 and -OAT3 cells. Kinetic parameters for the OAT1- and OAT3-mediated transport of DWP16001 were determined using the Michaelis-Menten equation [V = Vmax⋅S/(Km + S)] [10].
# [1] = Pharmacokinetic study and kidney distribution after single oral administration in ICR mice
# Method: (§1) An aliquot (30 µL) of each plasma sample was stored at −80 °C until the analysis. […] An aliquot (50 µL) of each kidney homogenate sample was stored at −80 °C until the analysis.
# (§2) For the analysis of SGLT2 inhibitors, aliquots of plasma (30 µL) and kidney homogenate (50 µL) were added to 100 μL of aqueous solution of D4-DWP16001 (IS, 20 ng/mL), and vigorously mixed with 500 μL methyl tert-butyl ether (MTBE) for 15 min. After centrifugation at 16,000 g for 5 min, samples were kept for 1 h at −80 °C to make an aqueous layer freeze. An organic upper layer was transferred to a clean tube and evaporated to dryness under a gentle stream of nitrogen. Then, the dried extract was reconstituted in 150 µL of mobile phase, and a 3 µL aliquot of the reconstituent was injected into a liquid chromatography–tandem mass spectrometry (LC–MS/MS) system.
# (§3) Pharmacokinetic parameters, such as the area under plasma concentration-time curve from zero to infinity (AUC), were calculated from plasma concentration vs time curves using non-compartment analysis with WinNonlin (version 5.1; Pharsights, Cary, NC, USA). The AUC ratios (i.e., ratios of kidney AUC to plasma AUC) were calculated by dividing the AUC of the three SGLT2 inhibitors in the kidney by the plasma AUC values of the three SGLT2 inhibitors.
# [2] = Protein binding in mouse plasma (rapid equilibrium dialysis); settings: 1000 ng/mL, 4 h at 37 °C, mean ± SD, triplicate
# Method: (§4) Four hours after incubation at 37 °C on a shaking incubator at 300 rpm, aliquots (50 μL) were collected from both the sample and buffer chambers and treated with equal volumes of fresh PBS and blank plasma or blank kidney homogenate, respectively, to match the sample matrices. The matrix-matched sample (100 μL) was added 100 μL of aqueous solution of D4-DWP16001 (IS, 20 ng/mL), and vigorously mixed with 1000 μL MTBE for 15 min. After centrifugation at 16,000 g for 5 min, samples were kept for 1 h at −80 °C. An organic upper layer was transferred to a clean tube and evaporated to dryness under a gentle stream of nitrogen. Then, the dried extract was reconstituted in 300 µL of mobile phase and a 3 µL aliquot of the reconstituent was injected into the LC-MS/MS system.
# Plasma protein binding was calculated using the following Equation (1) [6, 7]. (1) Undiluted free drug fraction (fu)=Drug concentration in buffer chamber/Drug concentration in plasma sample chamber
# [3] = logP (partition coefficient of n-octanol/water)
# [4] = Protein binding in 20% mouse kidney homogenate (rapid equilibrium dialysis); settings: corrected for dilution, 1000 ng/mL, 4 h at 37 °C, mean ± SD, triplicate
# Method: as §4
# Kidney protein binding was calculated using the following equations, Equations (2) and (3), and a dilution factor (D as a value of 5) for tissue homogenates was used since we used 20% kidney homogenates [6, 7]. (2) Diluted free drug fraction (fu′)=Drug concentration in buffer chamber/Drug concentration in kidney homogenate chamber, (3) Undiluted free drug fraction (fu)=1/D/(1/fu^′−1)+1/D=fu′×0.2/1−fu′×0.8.
# SGLT2 = molecular target: T2, SGLT2 (Homo sapiens, UniProt P31639); settings: read-out: IC50 values of previous reports; cited from earlier work
# T2 construct: host or cells: CHO
# T2 sequence (P31639 1-672): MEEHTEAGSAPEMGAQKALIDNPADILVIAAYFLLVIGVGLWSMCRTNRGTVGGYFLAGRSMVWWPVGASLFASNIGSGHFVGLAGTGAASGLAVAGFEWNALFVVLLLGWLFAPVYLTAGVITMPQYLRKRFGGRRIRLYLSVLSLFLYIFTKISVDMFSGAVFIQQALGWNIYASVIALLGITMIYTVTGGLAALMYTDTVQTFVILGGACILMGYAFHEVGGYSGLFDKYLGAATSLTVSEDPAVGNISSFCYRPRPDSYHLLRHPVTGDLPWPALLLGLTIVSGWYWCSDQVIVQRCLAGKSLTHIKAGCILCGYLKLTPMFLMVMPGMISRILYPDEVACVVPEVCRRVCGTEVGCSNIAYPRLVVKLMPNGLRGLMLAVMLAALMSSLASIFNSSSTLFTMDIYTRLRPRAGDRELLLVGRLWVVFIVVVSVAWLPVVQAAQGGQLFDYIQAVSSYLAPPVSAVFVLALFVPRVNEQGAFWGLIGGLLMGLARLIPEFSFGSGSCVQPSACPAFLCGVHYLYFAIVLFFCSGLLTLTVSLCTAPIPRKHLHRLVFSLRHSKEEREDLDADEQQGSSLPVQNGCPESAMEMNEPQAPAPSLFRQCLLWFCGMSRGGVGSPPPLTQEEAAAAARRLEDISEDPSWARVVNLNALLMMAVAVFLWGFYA
# [5] = parameters: method as in PMID 27430987; settings: cited from earlier work
# [6] = mouse, in vivo, po, 1 mg/kg
# Method: as §1, §2, §3
# in vivo = settings: ICR, mouse, po, 1 mg/kg
# Method: as §1, §2, §3
# [7] = HEK293-OAT3 minus mock, 0.5–50 μM, 5 min
# [8] = ICR, mouse, plasma, po, 1 mg/kg
compound,measurement,setting,value
OC[C@H]1O[C@@H](c2cc(Cc3ccc(C4CC4)cc3)c(Cl)c3c2CCO3)[C@H](O)[C@@H](O)[C@@H]1O [DWP16001],Increase of uptake in HEK293-OAT3 cells compared with mock cells,"OAT3; 2 μM, 5 min",two-fold
same,Substrate for OAT3,"OAT3; 2 μM, 5 min",a substrate
same,OAT3-mediated uptake: CLint,OAT3; [7],8.6 µL/min
same,OAT3-mediated uptake: Vmax,OAT3; [7],267.9 pmol/min
same,Km at 5 min,"OAT3; human, HEK293-OAT3 minus mock, 0.5–50 μM, read-out: OAT3-mediated uptake: Km",31.1 µM
same,Kp,"[1]; ICR, mouse, kidney homogenate and plasma, po, 1 mg/kg",85 ± 16.1
same,half-life,"[1]; ICR, mouse, kidney, po, 1 mg/kg, t1/2, kidney, single oral 1 mg/kg, ICR mice, mean ± SD, five mice",126 ± 80.4 h
same,AUC(0-inf),[1]; [8],1730 ± 340 ng·h/mL
same,AUC(0-t),[1]; [8],1690 ± 340 ng·h/mL
same,Cmax,[1]; [8],371 ± 109 ng/mL
same,Tmax,[1]; [8],0.7 ± 0.3 h
same,half-life,"[1]; ICR, mouse, plasma, po, 1 mg/kg, t1/2, plasma, single oral 1 mg/kg, ICR mice, mean ± SD, five mice",3.8 ± 1.4 h
same,AUC72h,"[1]; kidney, single oral 1 mg/kg, ICR mice, mean ± SD, five mice",139.2 ± 5.19 μg∙h/g tissue
same,Protein Binding (% Bound) Plasma,[2],98.50 ± 0.20 % Bound
same,logP,[3],2.65
same,Protein Binding (% Bound) Kidney,[4],97.24 ± 0.08 % Bound
"OC[C@H]1O[C@@H](c2ccc(F)c(Cc3cc4ccccc4s3)c2)[C@H](O)[C@@H](O)[C@@H]1O [Ipragliflozin, ipragliflozin]",IC50,SGLT2,6.75 to 8.07 nM
same,Substrate for OAT3,"OAT3; 2 μM, 5 min",not substrates
same,Duration of increased urinary glucose excretion post dose,[5],≥ 18 h
same,AUC72h,[6],73.65 ± 7.05 μg∙h/g tissue
same,logP,physchem,2.56
same,AUC(0-inf),in vivo,1970 ± 410 ng·h/mL
same,AUC(0-t),in vivo,1960 ± 410 ng·h/mL
same,Cmax,in vivo,410 ± 59.1 ng/mL
same,Kp,in vivo,38.4 ± 5.3
same,Tmax,in vivo,0.6 ± 0.2 h
